According to ChEMBL document CHEMBL3046890, “Synthesis and Herbicidal Activity of Sulfonylureas; SL-950 and Its Related Compounds” (1995):

How the values were obtained:
Assay type in all cases: functional
Sida spinosa = assay: Post-emergence herbicidal activity against two-leaf stage Sida spinosa assessed as efficacy of weed growth control at 60 g ai/ha under greenhouse conditions
Elymus repens [1] = assay: Post-emergence herbicidal activity against three to four-leaf stage Elymus repens (couch grass) assessed as efficacy of weed growth control at 40 g ai/ha under greenhouse conditions
Echinochloa crus-galli = assay: Post emergence herbicidal activity against three-leaf stage Echinochloa crus-galli (barnyard grass) assessed as efficacy of weed growth control at 40 g ai/ha under greenhouse conditions
Elymus repens [2] = assay: Post-emergence herbicidal activity against three to four-leaf stage Elymus repens (couch grass) assessed as efficacy of weed growth control at 80 g ai/ha under greenhouse conditions
Amaranthus viridis = assay: Post-emergence herbicidal activity against three-leaf stage Amaranthus viridis assessed as efficacy of weed growth control at 60 g ai/ha under greenhouse conditions
Cyperus microiria = assay: Post-emergence herbicidal activity against three-leaf stage Cyperus microiria assessed as efficacy of weed growth control at 60 g ai/ha under greenhouse conditions
Cyperus rotundus = assay: Post-emergence herbicidal activity against four to five-leaf stage Cyperus rotundus assessed as efficacy of weed growth control at 80 g ai/ha under greenhouse conditions
Digitaria sanguinalis = assay: Post-emergence herbicidal activity against two-leaf stage Digitaria sanguinalis (hairy crabgrass) assessed as efficacy of weed growth control at 40 g ai/ha under greenhouse conditions

`COc1cc(OC)nc(NC(=O)NS(=O)(=O)c2ncccc2C(=O)N(C)C)n1` [NICOSULFURON] gave an Efficacy (Sida spinosa) of 50%, an Efficacy (Elymus repens [1]) of 70% and an Efficacy (Echinochloa crus-galli) of 95%. For the same compound, the Efficacy (Elymus repens [2]) was 95%, the Efficacy (Amaranthus viridis) was 95% and the Efficacy (Cyperus microiria) was 95%. The Efficacy (Cyperus rotundus) was 70% and the Efficacy (Digitaria sanguinalis) was 70%.
